# Source: patent publication US20160136284A1, “GLIOMA TREATMENT” (priority 2012, published 2016)
# “Also recorded” adds a separate entry of the source.
# Key:
# [1] = Prolonged intracranial (brainstem) carboplatin infusions in primates (Strege et al.); assay type: in vivo
# [2] = Tissue distribution and half-life of carboplatin after CED into rat brain (LA-ICP-MS); assay type: in vivo
# Protocol: Male Wistar rats (Charles River, UK) were group-housed and allowed to acclimatise prior to experimental procedures. Rats weighing 225 to 275 g were anaesthetised with an intraperitoneal dose of medetomidine (Dormitor; 0.4 mg/kg; Pfizer Animal Health, Kent, UK) and ketamine (Ketaset; 100 mg/kg; Pfizer, UK) and placed in a stereotactic frame (Stoelting Co, Wood Dale, Ill. USA). A linear incision was made between the glabella and the occiput and the skull exposed. Burr holes with a diameter of approximately 2 mm were drilled 1.0 mm anterior and 2.5 mm lateral to the bregma and cannulae were inserted to a depth of 2.5 mm below the dura. All cannulae were pre-primed with either saline or carboplatin and the desired dose prior to insertion into the brain. Every attempt was made to ensure that no air bubbles were present in the infusion cannula. Infusions of 2.5 μl of carboplatin at specific concentrations (outlined in Table 1) were conducted at a rate of 5 μl/min. Following infusion completion, the cannula was left in-situ for 10 min before being withdrawn at a rate of 1 mm/min. The wound was then closed with 5.0 Vicryl (Ethicon, Gargrave, UK) a dose of intramuscular buprenorphine was administered (Vetergesic; 0.03 mg/kg; Alstoe Animal Health, York, UK) and the anaesthetic was reversed with an intraperitoneal dose of atipamezole hydrochloride (Antisedan; 5 mg/kg; Pfizer, UK). […]
# Resultant data (.csv files) was in the form of signal response for each monitored isotope (separate columns) against time; as such, ion-responses could be co-ordinated to form 2D elemental distribution maps, using the Graphis software package (Kylebank Software Ltd, Ayr, UK).
# The laser ablation (LA) system was configured to perform multiple, parallel line-rastering of sections. […] Isotopes (^13C, ^57Fe, ^66Zn, ^157Gd and ^195Pt) were monitored in a time-resolved mode and selected on the basis of high-percentage abundance and minimal isobaric and polyatomic interferences. […]
# [3] = Carboplatin toxicity in rat brain after CED (clinical, H&E, GFAP, DiI); assay type: in vivo
# Protocol: Male Wistar rats (Charles River, UK) were group-housed and allowed to acclimatise prior to experimental procedures. Rats weighing 225 to 275 g were anaesthetised with an intraperitoneal dose of medetomidine (Dormitor; 0.4 mg/kg; Pfizer Animal Health, Kent, UK) and ketamine (Ketaset; 100 mg/kg; Pfizer, UK) and placed in a stereotactic frame (Stoelting Co, Wood Dale, Ill. USA). A linear incision was made between the glabella and the occiput and the skull exposed. Burr holes with a diameter of approximately 2 mm were drilled 1.0 mm anterior and 2.5 mm lateral to the bregma and cannulae were inserted to a depth of 2.5 mm below the dura. All cannulae were pre-primed with either saline or carboplatin and the desired dose prior to insertion into the brain. Every attempt was made to ensure that no air bubbles were present in the infusion cannula. Infusions of 2.5 μl of carboplatin at specific concentrations (outlined in Table 1) were conducted at a rate of 5 μl/min. Following infusion completion, the cannula was left in-situ for 10 min before being withdrawn at a rate of 1 mm/min. The wound was then closed with 5.0 Vicryl (Ethicon, Gargrave, UK) a dose of intramuscular buprenorphine was administered (Vetergesic; 0.03 mg/kg; Alstoe Animal Health, York, UK) and the anaesthetic was reversed with an intraperitoneal dose of atipamezole hydrochloride (Antisedan; 5 mg/kg; Pfizer, UK). At predetermined time-points (see Table 1), animals were perfusion fixed with 100 mL of PBS followed by 100 mL of 4% paraformaldehyde (PFA; Fisher Scientific, UK) in PBS (pH 7.4). The brain was then removed from the skull and placed in 4% PFA for 48 hours and then cryoprotected in 30% sucrose (Melford Laboratories, Ipswich, UK) in PBS prior to sectioning.
# Rat brains were cut into 35 μm thick coronal sections using a Leica CM1850 cryostat (Leica Microsystems, Wetzlar, Germany) at −20° C. For haematoxylin and eosin staining, fixed sections were mounted on gelatine-subbed slides. Sections were submerged in 4% PFA for 20 minutes, dehydrated and then stained with haematoxylin and eosin (Cell Path, Hemel Hempstead, UK) according to standard protocols. Following this, sections were coverslipped with Pertex mounting medium (Cell Path, UK) and allowed to dry in the fumehood overnight before imaging with a Leica CTR 5500 microscope (Leica Microsystems, Germany). Sections were assessed by light microscopy to ensure that the cannula track in each brain terminated in the corpus callosum.
# For fluorescent immunohistochemistry, free-floating sections were washed with PBS for 5 min×3. Sections were then blocked in PBS plus 0.1% triton-x-100 (Sigma Aldrich, UK) containing 10% normal donkey serum (Sigma Aldrich, UK) for 1 hour at RT. Sections were then washed with PBS for 5 min. […]
# GBM = conditions: 4 consecutive sets of infusions at 0.03 mg/ml, assuming 50% kill per set
# Protocol: This is a phase I, single centre, dose-escalation study, of carboplatin administered by CED, into the peritumoural region of patients with recurrent or progressive GBM, following tumour resection. The study will incorporate six cohorts, with three patients in each cohort.
# Following tumour resection (study day 0), patients undergo a baseline MRI scan (study day 10-21), followed within 24 hours by catheter implantation. For patients with progressive multifocal disease in whom re-resection is not felt to be appropriate, catheters are implanted following a baseline MRI scan. Prior to catheter implantation, patients are loaded with phenytoin (unless allergic) and will be kept on this anticonvulsant during the duration of their infusions. In the event of allergy to phenytoin, patients are administered an alternative anticonvulsant during this time period. […] Catheter tip location is determined at the operating surgeon's discretion, and will be based on diffusion imaging-based fibre-tracking using iPlan Flow (Brainlab, Germany) and experience gained in animal models and previous patients. Up to four catheters are implanted per patient under general anaesthetic and attached to connector tubing, which will be tunnelled to a subcutaneous access device incorporating in-line bacterial filters, implanted in the infraclavicular fossa. […]
# [4] = cited from earlier work
# [5] = Glioma tissue concentration after high-dose intravenous delivery (Whittle et al.); assay type: in vivo
# [6] = up to 0.9 mg/ml, vs 0.9% saline
structure (smiles),measurement,setting,value
N.N.O=C([O-])C1(C(=O)[O-])CCC1.[Pt+2] [carboplatin],lowest concentration likely to lead to significant toxicity,"[1]; extrapolated from Strege et al, assuming patient weight of 70 kg",0.22 mg/mL
same,"ratio of serum concentration, intravenous in humans vs intracranial in primates","[1]; in vivo, iv",more than 5 thousand
same,distribution in rat brain at 0 hours post-infusion,[2]; 0.03 mg/ml by CED into corpus callosum,widespread distribution
same,time platinum detectable by LA-ICP-MS,[2]; 0.03 mg/ml by CED into rat corpus callosum,up to 24 hours
same,time carboplatin remains in the brain,"[2]; rat, CED",at least 24 hours
same,histological tissue toxicity (haematoxylin and eosin),"[3]; 0.03-0.9 mg/ml, up to 30 days",no histological evidence of tissue disruption; also recorded: No evidence of tissue toxicity
same,clinical tolerability / toxicity,"[3]; single CED infusions, concentrations of up to 0.9 mg/ml",well tolerated; also recorded: no clinical or histological evidence of toxicity
same,gliosis in white matter (GFAP immunostaining),[3]; [6],minimal evidence of gliosis
same,white matter tract integrity (DiI staining),[3]; [6],no loss of white matter tract integrity
same,theoretical tumour cell kill,GBM,94%
same,serum concentration,[4]; intracranial infusions of 0.25 mg/kg in primates,6 ng/mL
same,clinical toxicity,"[4]; one-month long brainstem infusions, 0.075 mg/kg",minimal clinical evidence of toxicity
same,peak glioma tissue concentration as share of IC50 (meta-analysis of chemosensitivity assays),[5],40%
